# Assay results: paper PMC9096165 (Frontiers in Pharmacology, 2022)
# Tests used:
# [1] = tested on: CXCR1; test: CXCR1 mRNA expression in F11 cells (RT PCR); assay type: cell-based; conditions: CYP 100 nM alone
# Description: (§1) For these experiments, cells at 18th passage were used.
# (§2) Triplicate samples were run for each gene.
# [2] = tested on: CXCR2; test: CXCR2 mRNA expression in F11 cells (RT PCR); assay type: cell-based; conditions: CYP 100 nM alone
# Description: as §1, §2
# [3] = tested on: TRPV1; test: TRPV1 protein level in F11 cells (Western blotting); assay type: cell-based; conditions: CYP 100 nM alone
# Description: as §1, §2
# Control and treated F11 cells were collected and lysed in an ice-cold RIPA buffer containing protease and phosphatase inhibitor cocktail (Sigma-Aldrich, United States). The extracted proteins were quantified using BCA assay (Thermo, United States). NuPAGE lithium dodecyl sulfate sample buffer (Cat#NP007, Thermo, United States) and NuPAGE sample reducing agent (Cat#NP0004, Thermo, United States) were added to the samples and then put in the Thermoblock (Eppendorf, United Kingdom) at 75°C for 10 min. Protein lysates (30 μg) were separated on NuPAGE bis–tris glycine gradient precast gel (Cat#NP0321PK2, Invitrogen, United States) and electroblotted on a PVDF membrane (Cat#IPVH00010, Millipore, United States) using a semi-dry system (Thermo, United States). Non-specific binding sites were blocked by blocking solution (Cat#000105, Invitrogen, United States) for 15 min at RT. […] The relative densities of the immunoreactive bands were determined and normalized with respect to actin, using Fiji software. […]
# [4] = tested on: TRPV1; test: TRPV1 mRNA expression in F11 cells (RT PCR); assay type: cell-based; conditions: CYP 100 nM alone
# Description: as §1, §2
# [5] = tested on: F11 cells; test: F11 cell viability (CellTiter AQueous One); assay type: cell-based; conditions: differentiated F11 cells, 24 h, 5 to 200 nM
# Protocol: as §1
# […] Cell viability was determined using the colorimetric method CellTiter AQueous One Solution Cell Proliferation Assay (Promega Corporation, United States), as previously reported ([Brandolini et al., 2017]). The quantity of formed formazan, as a function of viability, was measured at 492 nm using an ELISA plate reader, Infinite F200 (Tecan, Männedorf, Swiss). The results from five independent experiments were expressed as absorbance at 492 nm.
# [6] = tested on: CXCL1; test: CXCL1 mRNA expression in F11 cells (RT PCR); assay type: cell-based; conditions: CYP 100 nM alone
# Description: as §1, §2
# [7] = tested on: urinary bladder; assay type: in vivo; conditions: chronic CYP 75 mg kg^−1 i.p. three times every third day
# Protocol: CYP was administered to the animals by the intraperitoneal (i.p.) route (5 ml kg^−1) at the dosage of 75 mg kg^−1 for three times every third day to elicit chronic bladder irritation, as previously described ([Vizzard et al., 1996]).
# Animals pre-treated with the vehicle or a single high oral dose of DF2755A (20 mg kg^−1; 12 h before the first CYP administration) followed by repeated lower doses administration (7 mg kg^−1 twice daily for 7 days) during IC development were deeply anesthetized with isoflurane (4%) and then killed.
# After killing, rat abdomen was opened through a midline incision, and bladder and proximal urethra were exposed. A catheter was inserted into the bladder through the urethra and a loose ligature was placed around the neck of the urinary bladder. Bladder was inflated with saline via the catheter to slightly distend the bladder and ligature was tightened to maintain proper distension. Bladder was then excised cutting above the insertion point of ureters, and therefore the bladder neck was not included into the bladder sample. Bladders were opened using scissors and, after gross macroscopic evaluation and weighing, each bladder was cut into two equal pieces (named B1 and B2) and weighted again individually. One piece (B1) was placed in Eppendorf, then snap-frozen in liquid nitrogen, and stored at −80°C until quantification using ELISA assay. The second piece (B2) was placed in 10% formalin and stored at room temperature. Then the same samples were placed in 70% ethanol, then processed in paraffin blocks, and then trimmed according to the longitudinal plane to ensure the correct analysis of all the bladder sample. Sections were stained with hematoxylin and eosin (HE), and slides were then digitalized using a Pathscan® Touch scanner in the bright field mode with a ×20 objective. For the microscopic observations of bladder inflammation, the following parameters were analyzed: bladder edema in scores (n = 10/group), bladder hemorrhage in scores (n = 10/group), urothelial loss in scores (n = 10/group), and total inflammatory score, which was calculated by adding all the individual lesion scores (n = 10/group).
# [8] = tested on: TRPV4; conditions: F11 cells, CYP 100 nM alone
# Protocol: F11 hybridoma cell line (ECACC 08062601), chosen as a model of dorsal root ganglion (DRG) neurons ([Platika et al., 1985]; [Brandolini et al., 2017]) was cultivated in DMEM (Corning, United States) supplemented with 10% heat-inactivated FBS (Sigma-Aldrich St. Louis, CO, United States), 1% penicillin/streptomycin, and 1% glutamine (Sigma-Aldrich, United States) at 37°C, in a humidified 95% air and 5% CO2 atmosphere. For these experiments, cells at 18th passage were used. Cells were differentiated with the rat nerve growth factor (rNGF; Sigma-Aldrich, United States). rNGF was dissolved in DMEM with 1% penicillin/streptomycin and 1% glutamine (FBS free) at the final concentration of 50 ng ml^−1. Medium was replaced every 3 days until complete differentiation, which occurred after 7 days.
# TRPV1 and TRPV4 mRNA expression and protein levels and CXCR1, CXCR2, and CXCL1 mRNA levels were evaluated in F11 cells exposed to CYP. […] The total RNA concentration was determined in RNAase-free water using Nanodrop, while the concentration was determined using the Qubit Fluorometer 3.0 (Thermo, United States). […] Relative expression levels were calculated for each sample after normalization against the reference gene, using the 2^−ΔΔCt method for comparing relative fold expression differences.
# [9] = tested on: acute CYP-induced IC model; set-up: method as in Dornelles et al., 2014; conditions: acute CYP-induced IC rat model with inflammatory bladder infiltrate; ref Dornelles et al., 2014; cited from earlier work
SMILES,CXCR1 mRNA expression versus control [1],CXCR2 mRNA expression versus control [2],TRPV1 protein level versus control [3],TRPV1 mRNA expression versus control [4],neuronal cell viability [5],CXCL1 mRNA expression versus control [6],bladder hemorrhage [7],inflammatory infiltrate and urothelial hyperplasia in urinary bladder [7],"bladder edema, mean score ([7]; score 0–4 (Table 1))","urothelial loss, mean score ([7]; score 0–4 (Table 1))",TRPV4 mRNA expression versus control [8],effect on nociceptive behavior [9]
"O=P1(N(CCCl)CCCl)NCCCO1 (stereo not drawn) [CYP, Cyclophosphamide, reference compound]",significantly increased,significantly increased,increased,significantly increased,did not modulate neuronal cell viability,significantly increased,no hemorrhage,no inflammatory infiltrate and no urothelial hyperplasia,0.4 ± 0.16,0.1 ± 0.10,did not change,–
O=C(Nc1ccc([N+](=O)[O-])cc1O)Nc1ccccc1Br [SB225002],–,–,–,–,–,–,–,–,–,–,–,antinociceptive effect
